test system: HT-29 cells; test: HT-29 cell necrosis/necroptosis inhibition (TNF-α + SMAC mimetic + zVAD-FMK; CellTiter-Glo cell viability); assay type: cell-based; conditions: Homo sapiens; HT-29 cells, TNF-α 10 ng/ml + SMAC mimetic 6 μM + zVAD-FMK 10 μM, 20 hours; geometric mean, 10 points in duplicate; read-out: EC50 (Cell activity; Necrosis/Necroptosis Inhibitory Activity, Compounds 1-142)
In short: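 HT-29 cells (~5,000/well) were switched to FBS-free McCOY's 5A holding TNF-α (10 ng/ml), SMAC mimetic (6 μM) and zVAD-FMK (10 μM), then dosed with a 10-point 1:3 series for 20 h at 37 °C. CellTiter-Glo luminescence gave viability; geometric mean EC50 from duplicates.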

Q: How did the EC50 turn out when `Cc1n[nH]c(C)c1-c1nc(N2CCN(C(=O)N3N=CC[C@H]3c3cc(F)cc(C#N)c3)CC2)ncc1F` [Compound 94, (S)-3-(1-(4-(4-(3,5-dimethyl-1H-pyrazol-4-yl)-5-fluoropyrimidin-2-yl)piperazine-1-carbonyl)-4,5-dihydro-1H-pyrazol-5-yl)-5-fluorobenzonitrile] was run?
A: Its EC50 is 0.1 to 100 nM.

Q: With `Cn1c(-c2nc(N3CCN(C(=O)N4N=CC[C@H]4c4cc(F)cc(C#N)c4)CC3)ncc2F)cc(=O)n(C)c1=O` [Compound 51, (S)-3-fluoro-5-(1-(4-(5-fluoro-1′,3′-dimethyl-2′,6′-dioxo-1′,2′,3′,6′-tetrahydro-[4,4′-bipyrimidin]-2-yl)piperazine-1-carbonyl)-4,5-dihydro-1H-pyrazol-5-yl)benzonitrile] as the compound, how does the EC50 read?
A: Its EC50 is 0.1 to 100 nM.

Q: How did the EC50 turn out when `Cc1nnc(-c2nc(N3CCN(C(=O)N4N=CC[C@H]4c4cc(F)cc(C#N)c4)CC3)ncc2F)s1` [Compound 64, (S)-3-fluoro-5-(1-(4-(5-fluoro-4-(5-methyl-1,3,4-thiadiazol-2-yl)pyrimidin-2-yl)piperazine-1-carbonyl)-4,5-dihydro-1H-pyrazol-5-yl)benzonitrile] was run?
A: The EC50 was 0.1 to 100 nM.

Q: How did the EC50 turn out when `Cc1cnn(C)c1-c1nc(N2CCN(C(=O)N3N=CC[C@H]3c3cc(F)cc(F)c3)CC2)ccc1F` [Compound 113, (S)-(5-(3,5-difluorophenyl)-4,5-dihydro-1H-pyrazol-1-yl)(4-(6-(1,4-dimethyl-1H-pyrazol-5-yl)-5-fluoropyridin-2-yl)piperazin-1-yl)methanone] was run?
A: The EC50 was 0.1 to 100 nM.

Q: With `Cc1nn(CC2COC2)c(C)c1-c1nc(N2CCN(C(=O)N3N=CC[C@H]3c3cc(F)cc(C#N)c3)CC2)ncc1F` [Compound 135, (S)-3-(1-(4-(4-(3,5-dimethyl-1-(oxetan-3-ylmethyl)-1H-pyrazol-4-yl)-5-fluoropyrimidin-2-yl)piperazine-1-carbonyl)-4,5-dihydro-1H-pyrazol-5-yl) fluorobenzonitrile] as the compound, how does the EC50 read?
A: The EC50 was 0.1 to 100 nM.

Q: `NC(=O)c1cnn(-c2ccnc(N3CCN(C(=O)N4N=CC[C@H]4c4ccccc4)CC3)n2)c1` [Compound 11, (S)-1-(2-(4-(5-phenyl-4,5-dihydro-1H-pyrazole-1-carbonyl)piperazin-1-yl)pyrimidin-4-yl)-1H-pyrazole-4-carboxamide] was tested. Which EC50 did it give?
A: The EC50 was 0.1 to 100 nM.

Q: For `Cc1nn(-c2nc(N3CCN(C(=O)N4N=CC[C@H]4c4cc(F)cc(C#N)c4)CC3)ncc2F)c(=O)n1C` [Compound 96, (S)-3-(1-(4-(4-(3,4-dimethyl-5-oxo-4,5-dihydro-1H-1,2,4-triazol-1-yl)-5-fluoropyrimidin-2-yl)piperazine-1-carbonyl)-4,5-dihydro-1H-pyrazol-5-yl)-5-fluorobenzonitrile], which EC50 is on record?
A: Its EC50 is 0.1 to 100 nM.

Q: Which EC50 does the source give for `Cc1nc(C)c(-c2nc(N3CCN(C(=O)N4N=CC[C@H]4c4cc(F)cc(F)c4)CC3)ncc2F)s1` [Compound 55, (S)-(5-(3,5-difluorophenyl)-4,5-dihydro-1H-pyrazol-1-yl)(4-(4-(2,4-dimethylthiazol-5-yl)-5-fluoropyrimidin-2-yl)piperazin-1-yl)methanone] here?
A: The EC50 was 0.1 to 100 nM.

Q: How did the EC50 turn out when `Cn1cccc(-c2nc(N3CCN(C(=O)N4N=CC[C@H]4c4cc(F)cc(F)c4)CC3)ncc2F)c1=O` [Compound 88, (S)-3-(2-(4-(5-(3,5-difluorophenyl)-4,5-dihydro-1H-pyrazole-1-carbonyl)piperazin-1-yl)-5-fluoropyrimidin-4-yl)-1-methylpyridin-2(1H)-one] was run?
A: The EC50 was 0.1 to 100 nM.

Q: `Cc1nc(C)n(-c2cc(N3CCN(C(=O)N4N=CC[C@H]4c4cc(F)cc(F)c4)CC3)ncn2)n1` [Compound 90, (S)-(5-(3,5-difluorophenyl)-4,5-dihydro-1H-pyrazol-1-yl)(4-(6-(3,5-dimethyl-1H-1,2,4-triazol-1-yl)pyrimidin-4-yl)piperazin-1-yl)methanone] was tested. Which EC50 did it give?
A: Its EC50 is 0.1 to 100 nM.

Q: How did the EC50 turn out when `O=C(N1CCN(c2ncc(F)c(-c3cnn[nH]3)n2)CC1)N1N=CC[C@H]1c1cc(F)cc(F)c1` [Compound 8, (S)-(5-(3,5-difluorophenyl)-4,5-dihydro-1H-pyrazol-1-yl)(4-(5-fluoro-4-(1H-1,2,3-triazol-5-yl)pyrimidin-2-yl)piperazin-1-yl)methanone] was run?
A: Its EC50 is 0.1 to 100 nM.

Q: Which EC50 does the source give for `Cn1nncc1-c1nc(N2CCN(C(=O)N3N=CC[C@H]3c3cc(F)cc(F)c3)CC2)ncc1F` [Compound 44, (S)-(5-(3,5-difluorophenyl)-4,5-dihydro-1H-pyrazol-1-yl)(4-(5-fluoro-4-(1-methyl-1H-1,2,3-triazol-5-yl)pyrimidin-2-yl)piperazin-1-yl)methanone] here?
A: The EC50 was 0.1 to 100 nM.

Q: With `O=C(N1CCN(c2nccc(-c3cc[nH]n3)n2)CC1)N1N=CC[C@H]1c1cncc(F)c1` [Compound 36, (S)-(4-(4-(1H-pyrazol-3-yl)pyrimidin-2-yl)piperazin-1-yl)(5-(5-fluoropyridin-3-yl)-4,5-dihydro-1H-pyrazol-1-yl)methanone] as the compound, how does the EC50 read?
A: Its EC50 is 0.1 to 100 nM.

Q: For `Cc1nnnn1-c1nc(N2CCN(C(=O)N3N=CC[C@H]3c3cc(F)cc(C#N)c3)CC2)ncc1F` [Compound 59, (S)-3-fluoro-5-(1-(4-(5-fluoro-4-(5-methyl-1H-tetrazol-1-yl)pyrimidin-2-yl)piperazine-1-carbonyl)-4,5-dihydro-1H-pyrazol-5-yl)benzonitrile], which EC50 is on record?
A: The EC50 was 0.1 to 100 nM.

same assay, conditions: Homo sapiens; HT-29 cells, TNF-α 10 ng/ml + SMAC mimetic 6 μM + zVAD-FMK 10 μM, 20 hours; geometric mean, 10 points in duplicate; read-out: EC50 (Cell activity; Necrosis/Necroptosis Inhibitory Activity, Compounds 143-323)

Q: How did the EC50 turn out when `Cc1nn(-c2ccnc(N3CCN(C(=O)N4N=CC[C@H]4c4cc(F)cc(C#N)c4)CC3)n2)c(C)c1C#N` [Compound 274, (S)-1-(2-(4-(5-(3-cyano-5-fluorophenyl)-4,5-dihydro-1H-pyrazole-1-carbonyl)piperazin-1-yl)pyrimidin-4-yl)-3,5-dimethyl-1H-pyrazole-4-carbonitrile] was run?
A: Its EC50 is 0.1 to 100 nM.

Q: For `Cc1nc(C2CC=NN2C(=O)N2CCN(c3nc(-c4c(C)cnn4C)ncc3F)CC2)cs1` (stereo not drawn) [Compound 158, (4-(2-(1,4-dimethyl-1H-pyrazol-5-yl)-5-fluoropyrimidin-4-yl)piperazinyl)(5-(2-methylthiazol-4-yl)-4,5-dihydro-1H-pyrazol-1-yl)methanone], which EC50 is on record?
A: Its EC50 is 0.1 to 100 nM.

Q: With `Cc1c(N)nn(C)c1-c1nc(N2CCN(C(=O)N3N=CC[C@H]3c3cc(F)cc(F)c3)CC2)ncc1F` [Compound 155, (S)-(4-(4-(3-amino-1,4-dimethyl-1H-pyrazol-5-yl)-5-fluoropyrimidinyl)piperazin-1-yl)(5-(3,5-difluorophenyl)-4,5-dihydro-1H-pyrazol-1-yl)methanone] as the compound, how does the EC50 read?
A: The EC50 was 0.1 to 100 nM.

Q: For `Cc1ncn(-c2nc(N3CCN(C(=O)N4N=CC[C@H]4c4cc(F)cc(F)c4)CC3)ncc2F)n1` [Compound 235, (S)-(5-(3,5-difluorophenyl)-4,5-dihydro-1H-pyrazol-1-yl)(4-(5-fluoro-4-(3-methyl1H-1,2,4-triazol-1-yl)pyrimidin-2-yl)piperazin-1-yl)methanone], which EC50 is on record?
A: The EC50 was 0.1 to 100 nM.

Q: For `Cc1nc(C)n(-c2nccc(N3CCN(C(=O)N4N=CC[C@H]4c4cc(F)cc(C#N)c4)CC3)n2)n1` [Compound 244, (S)-3-(1-(4-(2-(3,5-dimethyl-1H-1,2,4-triazol-1-yl)pyrimidin-4-yl)piperazine-1-carbonyl)-4,5-dihydro-1H-pyrazol-5-yl)-5-fluorobenzonitrile], which EC50 is on record?
A: Its EC50 is 0.1 to 100 nM.

Q: With `Cc1nc(C)n(-c2cc(N3CCN(C(=O)N4N=CC[C@H]4c4cc(F)cc(F)c4)CC3)c(F)cn2)n1` [Compound 271, (S)-(5-(3,5-difluorophenyl)-4,5-dihydro-1H-pyrazol-1-yl)(4-(2-(3,5-dimethyl-1H-1,2,4-triazol-1-yl)-5-fluoropyridin-4-yl)piperazin-1-yl)methanone] as the compound, how does the EC50 read?
A: The EC50 was 0.1 to 100 nM.

Q: Which EC50 does the source give for `Cc1nn(-c2ccnc(N3CCN(C(=O)N4N=CC[C@H]4c4cncc(F)c4)CC3)n2)c(C)c1C#N` [Compound 283, (S)-1-(2-(4-(5-(5-fluoropyridin-3-yl)-4,5-dihydro-1H-pyrazole-1-carbonyl)piperazin-1-yl)pyrimidin-4-yl)-3,5-dimethyl-1H-pyrazole-4-carbonitrile] here?
A: The EC50 was 0.1 to 100 nM.

Q: How did the EC50 turn out when `Cn1nc(CO)nc1-c1nc(N2CCN(C(=O)N3N=CC[C@H]3c3cncc(F)c3)CC2)ncc1F` [Compound 174, (S)-(4-(5-fluoro-4-(3-(hydroxymethyl)-1-methyl-1H-1,2,4-triazol-5-yl)pyrimidin-2-yl)piperazin-1-yl)(5-(5-fluoropyridin-3-yl)-4,5-dihydro-1H-pyrazol-1-yl)methanone] was run?
A: Its EC50 is 0.1 to 100 nM.

Q: For `Cc1nn(-c2ccnc(N3CCN(C(=O)N4N=CC[C@H]4c4cc(F)cc(C#N)c4)CC3)n2)c(C)c1S(C)(=O)=O` [Compound 206, (S)-3-(1-(4-(4-(3,5-dimethyl-4-(methylsulfonyl)-1H-pyrazol-1-yl)pyrimidin-2-yl)piperazine-1-carbonyl)-4,5-dihydro-1H-pyrazol-5-yl)-5-fluorobenzonitrile], which EC50 is on record?
A: The EC50 was 0.1 to 100 nM.

Q: With `Cc1nc(C)n(-c2nc(N3CCN(C(=O)N4N=CCC4c4ncccc4Cl)CC3)ncc2F)n1` (stereo not drawn) [Compound 189, (5-(3-chloropyridin-2-yl)-4,5-dihydro-1H-pyrazol-1-yl)(4-(4-(3,5-dimethyl-1H-1,2,4-triazol-1-yl)-5-fluoropyrimidin-2-yl)piperazin-1-yl)methanone] as the compound, how does the EC50 read?
A: Its EC50 is 0.1 to 100 nM.

Q: With `Cc1cnn(C)c1-c1cc(N2CCN(C(=O)N3N=CCC3c3nccs3)CC2)c(F)cn1` (stereo not drawn) [Compound 294, (4-(2-(1,4-dimethyl-1H-pyrazol-5-yl)-5-fluoropyridin-4-yl)piperazin-1-yl)(5-(thiazol-2-yl)-4,5-dihydro-1H-pyrazol-1-yl)methanone] as the compound, how does the EC50 read?
A: The EC50 was 100 to 1000 nM.

Q: For `Cc1nc(C2CC=NN2C(=O)N2CCN(c3cc(-c4c(C)cnn4C)ncc3F)CC2)cs1` (stereo not drawn) [Compound 156, (4-(2-(1,4-dimethyl-1H-pyrazol-5-yl)-5-fluoropyridin-4-yl)piperazin-1-yl)(5-(2-methylthiazol-4-yl)-4,5-dihydro-1H-pyrazol-1-yl)methanone], which EC50 is on record?
A: The EC50 was 100 to 1000 nM.

Q: For `Cc1c(N)nn(C)c1-c1ccnc(N2CCN(C(=O)N3N=CC[C@H]3c3cc(F)cc(F)c3)CC2)n1` [Compound 143, (S)-(4-(4-(3-amino-1,4-dimethyl-1H-pyrazol-5-yl)pyrimidinyl)piperazin-1-yl)(5-(3,5-difluorophenyl)-4,5-dihydro-1H-pyrazol-1-yl)methanone], which EC50 is on record?
A: The EC50 was 0.1 to 100 nM.
